Data on 17 molecules can be found in patent US8951963B2, “Active cores of peptide triazole HIV-1 entry inhibitors” (priority 2009, dated 2015).

For experiment [1], the system named is HIV-1 strain BaL. The note with it: P4-CCR5 cells; Gopi et al., 2008; read-out: IC50, inhibition of infection by HIV-1 BaL; cited from earlier work.
The target in experiment [2] is T1, HIV-1 YU2 gp120 (Human immunodeficiency virus type 1 group M subtype B, UniProt P35961).
T1 construct: made in house; host or cells: Drosophila S2 cells
Type of experiment: binding. The settings on record: for dissociation rate constant (koff): Table 11, dissociation rate; for Ka: Table 11, association rate. Here is the method:
Surface plasmon resonance (SPR) interaction analyses were performed on a Biacore® 3000 optical biosensor (GE). All experiments were carried out at 25° C. using standard PBS, pH 7.4, with 0.005% Surfactant P20.
Regeneration of the surface was achieved by a one 5-second pulse of 10 mM glycine, pH 1.5.
SPR data analyses were performed using BIAEvaluation 4.0 software (GE). […] Experimental data were fitted to a simple 1:1 binding model with a parameter included for mass transport. […] The inhibition curve was converted into a calibration curve by the use of a fitting function. The fitting was done using the 4-parameter equation in BIAevaluation software: […]

The target of experiment [3] is T2, gp120 (Human immunodeficiency virus type 1 group M subtype B, UniProt P35961).
T2 construct: made in house; host or cells: Drosophila S2 cells
The experiment is classed as binding, HIV-1. The note with it: ITC, 25° C., PBS pH 7.4. The protocol:
FIGS. 14A-14D are a series of graphs of calorimetric titration data of gp120 with various peptides. […] Data was obtained as 25° C. in PBS, pH 7.4. Experiments in FIGS. 14A and 14B were carried out using a VP-ITC, where 2 μM gp120 in the calorimetric cell (˜1.4 mL) was titrated with 10 μL aliquots of peptide at concentration of 30 μM.
Isothermal titration calorimetric experiments were performed using high-precision calorimetric systems of model VP-ITC or ITC20 from MicroCal Inc. The titrations were performed by stepwise addition of peptide to gp120 contained in the calorimetric cell at a constant temperature of 25° C. […] For the experiments carried out in the VP-ITC the concentration of gp120 was about 2 μM and the syringe contained the peptide at a concentration about 30 μM. For the experiment carried out using ITC20 gp120 was prepared at about 4 μM and the peptide at 50-100 μM. The solutions contained within the calorimetric cells and injector syringes were prepared in PBS, pH 7.4 and thoroughly degassed to avoid bubble formation in the calorimetric cell. The heat evolved upon each injection of the peptide solution was obtained from the integral of the calorimetric signal. The heat associated with binding of a ligand to the protein in the cell was obtained by subtracting the heat of dilution from the heat of reaction.

The test system of experiment [4] is HIV-1 strain BaL. Kind of experiment: Combination of HNG-156 and cyanovirin-N, HIV-1 BaL infection of P4-CCR5 cells. The experiment is classed as cell-based. The settings on record: agent alone.

*1 amine or outer side, *2 acyl side, *3 side chain or, on linkers, in order; H or OH if unused. Where a SMILES comes first, the peptide text is derived from it. [ ]: non-standard residue; d: D form. X1 = O=C([C@@H]1C[C@H](n2cc([C]34[CH]5[CH]6[CH]7[CH]3[Fe]6754389%10[CH]4[CH]3[CH]8[CH]9[CH]4%10)nn2)CN1[*:1])[*:2]; Cit = NC(=O)NCCC[C@H](N)C(=O)O

With “12-mer peptide RINNIPWSEAMM (SEQ ID NO. 16) from phage-display library [Conjugate 12p1, reference compound]”, the IC50 (as a rule, the concentration that gives 50% inhibition) in experiment [1] was 48 µM.

For `CC[C@H](C)[C@H](NC(=O)[C@@H](N)CCCNC(=N)N)C(=O)N[C@@H](CC(N)=O)C(=O)N[C@@H](CC(N)=O)C(=O)N[C@H](C(=O)N1C[C@@H](n2cc([C]34[CH]5[CH]6[CH]7[CH]3[Fe]6754389%10[CH]4[CH]3[CH]8[CH]9[CH]4%10)nn2)C[C@H]1C(=O)N[C@@H](Cc1c[nH]c2ccccc12)C(=O)N[C@@H](CO)C(N)=O)[C@@H](C)CC` (some centres unmarked) [UM11] (H-RINNI[X1]WS-NH2; N-terminus and C-terminus assumed), the “dissociation rate constant (koff)” value in experiment [2] was 2.1E−02 ± 0.6 1/S. With `CC[C@H](C)[C@H](N)C(=O)N[C@@H](CC(N)=O)C(=O)N[C@@H](CC(N)=O)C(=O)N[C@H](C(=O)N1C[C@@H](n2cc([C]34[CH]5[CH]6[CH]7[CH]3[Fe]6754389%10[CH]4[CH]3[CH]8[CH]9[CH]4%10)nn2)C[C@H]1C(=O)N[C@@H](Cc1c[nH]c2ccccc12)C(N)=O)[C@@H](C)CC` (some centres unmarked) [UM15] (H-INNI[X1]W-NH2), the “dissociation rate constant (koff)” value in experiment [2] was 3.3E−03 ± 0.3 1/S. For the same molecule, in experiment [3], the ΔH is -69.5 kJ/mol and the “−TΔS” value is reported as “+6.6 kcal/mol”. Turning to `CC[C@H](C)[C@H](NC(=O)[C@@H](N)CCCNC(=N)N)C(=O)N[C@@H](CC(N)=O)C(=O)N[C@@H](CC(N)=O)C(=O)N[C@H](C(=O)N1C[C@@H](n2cc([C]34[CH]5[CH]6[CH]7[CH]3[Fe]6754389%10[CH]4[CH]3[CH]8[CH]9[CH]4%10)nn2)C[C@H]1C(N)=O)[C@@H](C)CC` (some centres unmarked) [UM16] (H-RINNI[X1]-NH2; N-terminus assumed), in experiment [2], the Ka result is given as “Not detectable” and the “dissociation rate constant (koff)” value is on record as “Not detectable”. In the case of `CC[C@H](C)[C@H](N)C(=O)N[C@@H](CC(N)=O)C(=O)N[C@@H](CC(N)=O)C(=O)N[C@H](C(=O)N1C[C@@H](n2cc([C]34[CH]5[CH]6[CH]7[CH]3[Fe]6754389%10[CH]4[CH]3[CH]8[CH]9[CH]4%10)nn2)C[C@H]1C(=O)N[C@@H](Cc1c[nH]c2ccccc12)C(=O)N[C@@H](CO)C(N)=O)[C@@H](C)CC` (some centres unmarked) [UM21] (H-INNI[X1]WS-NH2; N-terminus and C-terminus assumed), in experiment [2], the “dissociation rate constant (koff)” value was 1.4E−03 ± 0.5 1/S. Consider `CC[C@H](C)[C@H](NC(=O)[C@H](CC(N)=O)NC(=O)[C@H](CC(N)=O)NC(=O)[C@@H](N)CCCNC(=N)N)C(=O)N1C[C@@H](n2cc([C]34[CH]5[CH]6[CH]7[CH]3[Fe]6754389%10[CH]4[CH]3[CH]8[CH]9[CH]4%10)nn2)C[C@H]1C(=O)N[C@@H](Cc1c[nH]c2ccccc12)C(=O)N[C@@H](CO)C(N)=O` (some centres unmarked) [UM22] (H-RNNI[X1]WS-NH2; N-terminus and C-terminus assumed), for which, in experiment [2], the “dissociation rate constant (koff)” value is 6.8E−03 ± 0.4 1/S.

For `CC[C@H](C)[C@H](NC(=O)[C@H](CC(N)=O)NC(=O)[C@H](CC(N)=O)NC(=O)[C@@H](N)CCC(=O)O)C(=O)N1C[C@@H](n2cc([C]34[CH]5[CH]6[CH]7[CH]3[Fe]6754389%10[CH]4[CH]3[CH]8[CH]9[CH]4%10)nn2)C[C@H]1C(=O)N[C@@H](Cc1c[nH]c2ccccc12)C(=O)N[C@@H](CO)C(N)=O` (some centres unmarked) [UM23] (H-ENNI[X1]WS-NH2; N-terminus and C-terminus assumed), in experiment [2], the “dissociation rate constant (koff)” value is 3.4E−03 ± 0.2 1/S. As to `CC[C@H](C)[C@H](NC(=O)[C@H](CC(N)=O)NC(=O)[C@H](CC(N)=O)NC(=O)[C@@H](N)CCCNC(N)=O)C(=O)N1C[C@@H](n2cc([C]34[CH]5[CH]6[CH]7[CH]3[Fe]6754389%10[CH]4[CH]3[CH]8[CH]9[CH]4%10)nn2)C[C@H]1C(=O)N[C@H](Cc1c[nH]c2ccccc12)C(=O)N[C@@H](CO)C(N)=O` (some centres unmarked) [UM24-DW] (H-[Cit]NNI[X1][dW]S-NH2; N-terminus assumed), in experiment [2], the Ka entry was “Not detectable” and the “dissociation rate constant (koff)” value is recorded as “Not detectable”.

Consider `CC[C@H](C)[C@H](NC(=O)[C@H](CC(N)=O)NC(=O)[C@H](CC(N)=O)NC(=O)[C@@H](N)CCCCN)C(=O)N1C[C@@H](n2cc([C]34[CH]5[CH]6[CH]7[CH]3[Fe]6754389%10[CH]4[CH]3[CH]8[CH]9[CH]4%10)nn2)C[C@H]1C(=O)N[C@@H](Cc1c[nH]c2ccccc12)C(=O)N[C@@H](CO)C(N)=O` (some centres unmarked) [UM27] (H-KNNI[X1]WS-NH2), for which, in experiment [2], the “dissociation rate constant (koff)” value is 8.8E−03 ± 2.1 1/S. In the case of `CC[C@H](C)[C@H](NC(=O)[C@H](CC(N)=O)NC(=O)[C@H](CC(N)=O)NC(=O)[C@@H](N)Cc1ccccc1)C(=O)N1C[C@@H](n2cc([C]34[CH]5[CH]6[CH]7[CH]3[Fe]6754389%10[CH]4[CH]3[CH]8[CH]9[CH]4%10)nn2)C[C@H]1C(=O)N[C@@H](Cc1c[nH]c2ccccc12)C(=O)N[C@@H](CO)C(N)=O` (some centres unmarked) [UM28] (H-FNNI[X1]WS-NH2), in experiment [2], the “dissociation rate constant (koff)” value is on record as 4.3E−03 ± 0.8 1/S. As for `CC[C@H](C)[C@H](NC(=O)[C@H](CC(N)=O)NC(=O)[C@@H](N)CC(N)=O)C(=O)N1C[C@@H](n2cc([C]34[CH]5[CH]6[CH]7[CH]3[Fe]6754389%10[CH]4[CH]3[CH]8[CH]9[CH]4%10)nn2)C[C@H]1C(=O)N[C@@H](Cc1c[nH]c2ccccc12)C(=O)N[C@@H](CO)C(N)=O` (some centres unmarked) [UM31] (H-NNI[X1]WS-NH2), in experiment [2], the “dissociation rate constant (koff)” value is reported as 7.8E−03 ± 1.1 1/S. In experiment [3], the ΔH is -57.7 kJ/mol and the “−TΔS” value was “+4.1 kcal/mol”. On to `CC[C@H](C)[C@H](NC(=O)[C@H](CC(N)=O)NC(=O)[C@@H](N)CCCNC(=N)N)C(=O)N1C[C@@H](n2cc([C]34[CH]5[CH]6[CH]7[CH]3[Fe]6754389%10[CH]4[CH]3[CH]8[CH]9[CH]4%10)nn2)C[C@H]1C(=O)N[C@@H](Cc1c[nH]c2ccccc12)C(=O)N[C@@H](CO)C(N)=O` (some centres unmarked) [UM32] (H-RNI[X1]WS-NH2), for which the “dissociation rate constant (koff)” value in experiment [2] is recorded as 3.1E−03 ± 1.5 1/S. Consider `CC[C@H](C)[C@H](NC(=O)[C@H](CC(N)=O)NC(=O)[C@@H](N)CCC(=O)O)C(=O)N1C[C@@H](n2cc([C]34[CH]5[CH]6[CH]7[CH]3[Fe]6754389%10[CH]4[CH]3[CH]8[CH]9[CH]4%10)nn2)C[C@H]1C(=O)N[C@@H](Cc1c[nH]c2ccccc12)C(=O)N[C@@H](CO)C(N)=O` (some centres unmarked) [UM33] (H-ENI[X1]WS-NH2), for which the “dissociation rate constant (koff)” value in experiment [2] is given as 1.8E−03 ± 0.8 1/S. Regarding `CC[C@H](C)[C@H](NC(=O)[C@H](CC(N)=O)NC(=O)[C@@H](N)CCCNC(N)=O)C(=O)N1C[C@@H](n2cc([C]34[CH]5[CH]6[CH]7[CH]3[Fe]6754389%10[CH]4[CH]3[CH]8[CH]9[CH]4%10)nn2)C[C@H]1C(=O)N[C@@H](Cc1c[nH]c2ccccc12)C(=O)N[C@@H](CO)C(N)=O` (some centres unmarked) [UM34] (H-[Cit]NI[X1]WS-NH2; N-terminus assumed), in experiment [2], the Ka entry was “Not detectable” and the “dissociation rate constant (koff)” value is “Not detectable”. For the molecule `CC[C@H](C)[C@H](N)C(=O)N[C@@H](CC(N)=O)C(=O)N[C@H](C(=O)N1C[C@@H](n2cc([C]34[CH]5[CH]6[CH]7[CH]3[Fe]6754389%10[CH]4[CH]3[CH]8[CH]9[CH]4%10)nn2)C[C@H]1C(=O)N[C@@H](Cc1c[nH]c2ccccc12)C(=O)N[C@@H](CO)C(N)=O)[C@@H](C)CC` (some centres unmarked) [UM35] (H-INI[X1]WS-NH2; N-terminus assumed), in experiment [2], the Ka entry was “Not detectable” and the “dissociation rate constant (koff)” value is “Not detectable”. For `CC[C@H](C)[C@H](NC(=O)[C@@H](N)CC(N)=O)C(=O)N1C[C@@H](n2cc([C]34[CH]5[CH]6[CH]7[CH]3[Fe]6754389%10[CH]4[CH]3[CH]8[CH]9[CH]4%10)nn2)C[C@H]1C(=O)N[C@@H](Cc1c[nH]c2ccccc12)C(=O)N[C@@H](CO)C(N)=O` (some centres unmarked) [UM41] (H-NI[X1]WS-NH2), in experiment [2], the Ka result is recorded as “Not detectable” and the “dissociation rate constant (koff)” value is given as “Not detectable”. Further, in experiment [3], the ΔH is -25.5 kJ/mol and the “−TΔS” value is -6.69 kJ/mol.

B1: Cyanovirin-N: 11 kD protein originally isolated from the cyanobacteria Nostoc ellipsosporum; binds gp120 (protein, listed as Nostoc ellipsosporum)
chain: LGKFSQTCYNSAIQGSVLTSTCERTNGGYNTSSIDLNSVIENVDGSLKWQPSNFIETCRNTQLAGSSELAAECKTRAQQFVSTKINLDDHIANIDGTLKYE
modifications: DISULFID (8)..(22); DISULFID (58)..(73)
For B1, the “Viral infectivity inhibition IC50” value in experiment [4] turned out to be 0.026 microgram/milliliter. The “EC50 Dm” value in experiment [4] (dose at which 50% neutralization occurs) is 0.045 mg/L.
